According to article PMC9692511, “Coumarin-Based Dual Inhibitors of Human Carbonic Anhydrases and Monoamine Oxidases Featuring Amino Acyl and (Pseudo)-Dipeptidyl Appendages: In Vitro and Computational Studies” (Molecules, 2022):
Values joined by “and” are separate entries in the source; they are usually repeats but may differ in a detail not shown here. Equal values may be shown once. Read-outs that look alike come from different tables or passages of the source.

Key:
hCA I = target: T1, hCA I (Homo sapiens, UniProt P00915); test: hCA I inhibition, stopped-flow CO2 hydration assay; type: biochemical; details: stopped-flow technique, mean of three independent experiments
T1 construct: made in house
Experimental: (§1) An Applied Photophysics stopped-flow instrument was used for measuring hCA-catalyzed CO2 hydration activity. […] However, the background activity from the uncatalyzed reaction was always subtracted when IC50 values were obtained by using the data analysis software for the stopped-flow instrument. […] The uncatalyzed rates were measured in the same manner and were subtracted from the total observed rates. Stock solutions of the inhibitor (0.1 mM) were prepared in distilled-deionized water, and dilutions up to 0.01 nM were performed thereafter with the assay buffer. Inhibitor and enzyme solutions were preincubated together for 15 min at room temperature prior to the assay, to allow for the formation of the E–I complex. The inhibition constants (Ki) were obtained by the nonlinear least-squares methods using PRISM 3 and the Cheng-Prusoff equation as reported earlier and are presented as the mean from at least three different determinations. All hCA isoforms were recombinant proteins obtained in-house, as reported earlier.

hCA XII = target: T2, hCA XII (Homo sapiens, UniProt O43570); test: hCA XII inhibition, stopped-flow CO2 hydration assay; type: biochemical; details: for SI hCA XII over hCA I or hCA II: Ki hCA I or II (nM)/Ki hCA XII (nM); for SI hCA XII over hCA IX: Ki hCA IX (nM)/Ki hCA XII (nM)
T2 construct: made in house
Experimental: as §1

hCA II = target: T3, hCA II (Homo sapiens, UniProt P00918); test: hCA II inhibition, stopped-flow CO2 hydration assay; type: biochemical; details: stopped-flow technique, mean of three independent experiments
T3 construct: made in house
Experimental: as §1

hMAO-B = target: T4, hMAO-B (Homo sapiens, UniProt P27338); test: hMAO-B inhibition, kynuramine fluorescence assay; type: biochemical; details: recombinant human MAO-B, kynuramine substrate; mean ± SD of three independent experiments
T4 construct: purchased Sigma-Aldrich
T4 sequence (P27338 1-520): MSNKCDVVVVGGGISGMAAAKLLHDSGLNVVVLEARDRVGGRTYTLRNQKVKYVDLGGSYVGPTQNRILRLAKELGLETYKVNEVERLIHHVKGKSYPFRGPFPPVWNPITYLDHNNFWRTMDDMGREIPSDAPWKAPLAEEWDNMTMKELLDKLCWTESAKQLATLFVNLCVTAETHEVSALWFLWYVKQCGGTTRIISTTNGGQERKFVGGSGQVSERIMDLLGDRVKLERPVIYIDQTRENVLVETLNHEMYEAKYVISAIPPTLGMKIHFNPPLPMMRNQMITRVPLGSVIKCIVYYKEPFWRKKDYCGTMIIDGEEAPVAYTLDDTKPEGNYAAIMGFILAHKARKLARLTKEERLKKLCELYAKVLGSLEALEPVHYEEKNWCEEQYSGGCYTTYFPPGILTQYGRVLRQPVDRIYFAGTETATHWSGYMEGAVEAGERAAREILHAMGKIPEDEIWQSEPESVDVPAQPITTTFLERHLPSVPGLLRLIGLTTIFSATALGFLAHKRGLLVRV
Experimental: (§2) Activity measurements (IC50) for hMAO-A and hMAO-B were carried out as reported in the literature. Recombinant human MAO-A and MAO-B were obtained commercially (Sigma-Aldrich, Cape Town, South Africa) and were used as enzyme sources. Kynuramine is a non-specific substrate and serves as a substrate for both hMAO isoforms. The hMAOs metabolize kynuramine to produce 4-hydroxyquinoline, which was measured at the endpoint of the enzyme reactions by fluorescence spectrophotometry.

hCA IX = target: T5, hCA IX (Homo sapiens, UniProt Q16790); test: hCA IX inhibition, stopped-flow CO2 hydration assay; type: biochemical; details: for Ki: stopped-flow technique, mean of three independent experiments
T5 construct: made in house
Experimental: as §1

hMAO-A = target: T6, hMAO-A (Homo sapiens, UniProt P21397); test: hMAO-A inhibition, kynuramine fluorescence assay; type: biochemical
T6 construct: purchased Sigma-Aldrich
T6 sequence (P21397 1-527): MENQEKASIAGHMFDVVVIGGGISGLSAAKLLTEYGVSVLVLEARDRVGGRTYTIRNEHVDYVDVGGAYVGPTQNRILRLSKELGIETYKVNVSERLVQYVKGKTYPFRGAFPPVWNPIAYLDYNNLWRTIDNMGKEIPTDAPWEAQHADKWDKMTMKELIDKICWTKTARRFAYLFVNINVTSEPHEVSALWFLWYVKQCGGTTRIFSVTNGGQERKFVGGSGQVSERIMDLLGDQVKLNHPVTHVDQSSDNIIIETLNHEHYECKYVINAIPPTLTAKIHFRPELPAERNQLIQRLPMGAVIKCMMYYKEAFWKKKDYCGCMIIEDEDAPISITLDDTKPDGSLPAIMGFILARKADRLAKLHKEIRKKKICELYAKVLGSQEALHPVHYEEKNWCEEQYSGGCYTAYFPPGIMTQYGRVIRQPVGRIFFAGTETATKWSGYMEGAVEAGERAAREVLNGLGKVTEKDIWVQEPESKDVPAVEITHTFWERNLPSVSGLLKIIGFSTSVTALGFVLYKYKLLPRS
Experimental: as §2

[1] = stopped-flow technique, mean of three independent experiments, read-out: Ki hCA XII
[2] = Ki hCA I or II (nM)/Ki hCA IX (nM)
[3] = recombinant human MAO-A, kynuramine substrate, mean ± SD of three independent experiments

T2 sequence (O43570 25-354): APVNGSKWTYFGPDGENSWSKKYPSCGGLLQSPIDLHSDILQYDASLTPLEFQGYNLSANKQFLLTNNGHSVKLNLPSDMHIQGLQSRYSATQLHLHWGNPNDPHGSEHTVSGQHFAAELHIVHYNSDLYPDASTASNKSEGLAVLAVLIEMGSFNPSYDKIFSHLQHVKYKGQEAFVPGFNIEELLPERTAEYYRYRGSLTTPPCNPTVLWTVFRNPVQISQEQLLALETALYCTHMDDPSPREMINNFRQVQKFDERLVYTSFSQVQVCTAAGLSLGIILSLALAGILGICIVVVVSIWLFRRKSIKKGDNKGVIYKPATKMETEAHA
T1 sequence (P00915 whole entry): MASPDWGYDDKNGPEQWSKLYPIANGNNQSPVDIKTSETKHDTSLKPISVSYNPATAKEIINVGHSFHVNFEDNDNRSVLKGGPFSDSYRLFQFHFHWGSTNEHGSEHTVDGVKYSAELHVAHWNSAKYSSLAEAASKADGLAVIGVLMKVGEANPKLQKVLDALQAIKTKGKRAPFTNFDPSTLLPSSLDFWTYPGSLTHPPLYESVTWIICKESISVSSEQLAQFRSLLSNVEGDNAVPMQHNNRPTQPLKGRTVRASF

Row | Ki (hCA I) [µM] | SI hCA XII over hCA I or hCA II (hCA XII) | SI hCA XII over hCA IX (hCA XII) | Ki (hCA XII; [1]) [µM] | Ki (hCA II) [µM] | IC50 (hMAO-B) [µM] | SI hCA IX over hCA I or hCA II (hCA IX; [2]) | Ki (hCA IX) [µM] | IC50 (hMAO-A; [3]) | Ki (hCA XII) [µM] | melting point [°C] | SI hCA IX over hCA I or hCA II (hCA IX) | SI MAO-B/MAO-A (hMAO-A; IC50 MAO-B/IC50 MAO-A, selectivity for hMAO-A) | MAO-B (IC50 μM) (hMAO-B) | MAO-A (IC50 μM) (hMAO-A; [3]) | Structure (SMILES)
1 | > 10 | >213.7 | 0.6 | 0.0468 | > 10 | 45.6 ± 1.85 | >340.1 | 0.0294 | 12 ± 0.693 µM |  |  |  |  |  |  | COCc1cc(=O)oc2cc(NC(=O)[C@H](C)NC(C)=O)ccc12 [Compound 7, Ac-Ala-AMMC]
2 | > 10 | >268.8 | 2.4 |  | > 10 | > 100 | >109.9 | 0.091 | 54.8 ± 0.028 µM | 0.0372 | 153 to 155 |  |  |  |  | Cc1cc(=O)oc2cc(NC(=O)[C@H](C)NC(=O)OCC3c4ccccc4-c4ccccc43)ccc12 [Compound 2, Fmoc-Ala-AMC]
3 | > 10 | >90.9 | 0.3 |  | > 10 | > 100 |  | 0.0305 | < 10 µM and 9.31 µM |  |  | >327.9 |  |  |  | Cc1cc(=O)oc2cc(NC(=O)[C@H](C)NC(=O)OCc3ccccc3)ccc12 [Compound 1, Z-Ala-AMC]
4 | > 10 | >29.7 | 0.5 |  | > 10 | 79.5 ± 7.24 | >58.3 | 0.172 | 41.3 ± 17.8 µM | 0.336 | 205 to 209 |  |  |  |  | COCc1cc(=O)oc2cc(NC(=O)[C@@H](NC(=O)[C@H](C)NC(=O)OCc3ccccc3)C(C)(C)C)ccc12 [Compound 11, Z-Ala-tLeu-AMMC]
5 | > 10 | >241.0 | 1.9 |  | > 10 | > 100 | >127.1 | 0.0787 | 47 ± 13.5 µM | 0.0415 |  |  |  |  |  | CCC(C)C(NC(=O)OCc1ccccc1)C(=O)Nc1ccc2c(COC)cc(=O)oc2c1 (stereo not drawn) [Compound 8, Z-Ile-AMMC]
6 | > 10 | >182.8 | 0.5 |  | > 10 | 75.3 ± 0.976 | >370.4 | 0.027 | > 100 µM | 0.0547 | 148 to 150 |  |  |  |  | COCc1cc(=O)oc2cc(NC(=O)[C@H](C)NC(=O)N[C@@H](C)C(=O)OC)ccc12 [Compound 20, MeO-Ala-CO-Ala-AMMC]
7 | > 10 | >327.9 | 0.8 | 0.0305 | > 10 | > 100 | >427.3 | 0.0234 | < 10 µM and 1.92 µM |  |  |  | 52 |  |  | CC(=O)N[C@@H](C)C(=O)Nc1ccc2c(C)cc(=O)oc2c1 [Compound 6, Ac-Ala-AMC]
8 | > 10 | >261.8 | 4.8 |  | > 10 | > 100 | >54.6 | 0.183 | < 10 µM and 5.91 µM | 0.0382 | 193 to 195 |  |  |  |  | COC(=O)CNC(=O)N[C@@H](C)C(=O)Nc1ccc2c(C)cc(=O)oc2c1 [Compound 16, MeO-Gly-CO-Ala-AMC]
9 | > 10 | >1041.7 | 17.0 |  | > 10 | 58.6 ± 24 | >61.2 | 0.163 | 69.6 ± 9.28 µM | 0.0096 | 193 to 195 |  |  |  |  | COC(=O)[C@H](C)NC(=O)N[C@@H](C)C(=O)Nc1ccc2c(C)cc(=O)oc2c1 [Compound 17, MeO-Ala-CO-Ala-AMC]
10 | > 10 | >1052.6 | 27.4 |  | > 10 | > 100 | >38.4 | 0.261 | > 100 µM | 0.0095 | 182 to 183 |  |  | completely devoid of activity | completely devoid of activity | CCOC(=O)CCNC(=O)N[C@@H](C)C(=O)Nc1ccc2c(C)cc(=O)oc2c1 [Compound 19, EtO-βAla-CO-Ala-AMC]
11 | > 10 | >250.0 | 2.3 |  | > 10 | 78 ± 22.3 | >106.8 | 0.0936 | 21.8 ± 0.092 µM | 0.04 | 177 to 183 |  |  |  |  | COC(=O)[C@H](Cc1ccccc1)NC(=O)N[C@@H](C)C(=O)Nc1ccc2c(C)cc(=O)oc2c1 [Compound 18, MeO-Phe-CO-Ala-AMC]
